The text below walks through data of US11191265B2, “Method of reducing crop damage” (Bayer CropScience Aktiengesellschaft, priority 2016, dated 2021).

What all share (assay type): in vivo
Series [1] concerns Wheat (winter wheat, TRZAW). Description: Method C: safener seed treatment, then post-emergence herbicide plus safener tank mix, greenhouse pot test, crop damage scored visually. To be noted: 20 days after post-emergence application at BBCH11; herbicide 300 g/ha; safener (mefenpyr-diethyl) seed treatment 0.5 g/kg and 200 g/ha in tank mix where combined; vs untreated controls; mean of at least 3 replicates. The method, then:
(§1) Wheat seeds (winter wheat, TRZAW) were placed in sandy loam soil in pots of a diameter of 7 cm, covered with soil and cultivated in a greenhouse under good growth conditions.
(§2) For the safener seed treatment, sufficient seeds were weighed into screw top glass bottles approximately twice the volume of the seeds.
(§3) The safener (mefenpyr-diethyl, formulated as wettable powder; WP) was weighed out so that the required rates (g a.i./kg seed) would be obtained, dissolved in water (1 ml water per 10 g of seeds), and added to the seeds to produce a slurry.
(§4) The bottles were capped and then placed in an overhead shaker (set at medium speed for up to 1 hour) so that the seeds were evenly coated with the slurry. The bottles were uncapped and the seeds were sown as described above.
Post-emergence application was done when the plants had reached growth stage BBCH11.
(§5) The safener (mefenpyr-diethyl) was formulated as wettable powder (WP).
(§6) The compounds were sprayed onto the green parts of the plants as an aqueous suspension at an equivalent water application rate of 300 l/ha with addition of 0.2% wetting agent (Agrotin).
(§7) The combination of herbicide and safener was applied as a tank mix.
(§8) After application, the test plants were kept in the greenhouse under good growth conditions.
(§9) Values in the table below are mean values from at least 3 replicates.

Series [2] relates to Wheat (winter wheat, TRZAW). Description: Method D: safener seed treatment, then pre-emergence herbicide plus safener tank mix, greenhouse pot test, crop damage scored visually. As to conditions: 21 days after pre-emergence application to the soil surface; herbicide 300 g/ha; safener (mefenpyr-diethyl) seed treatment 0.5 g/kg and 200 g/ha in tank mix where combined; vs untreated controls; mean of at least 3 replicates. The protocol: as §1, §2, §3, §4
The compounds were sprayed to the soil surface as an aqueous suspension at an equivalent water application rate of 300 l/ha with addition of 0.2% wetting agent (Agrotin).
as §7, §8, §9

Series [3] relates to Wheat (winter wheat, TRZAW). Description: Method A: safener seed treatment, then post-emergence herbicide, greenhouse pot test, crop damage scored visually. To be noted: 20 days after post-emergence application at BBCH11; herbicide 300 g/ha; safener (mefenpyr-diethyl) seed treatment 0.5 g/kg where combined; vs untreated controls; mean of at least 3 replicates. The method, then: as §1, §2, §3, §4
Post-emergence application of the herbicide was done when the plants had reached growth stage BBCH11.
as §8, §9

For series [4], the system named is Wheat (winter wheat, TRZAW). Description: Prior-art method: post-emergence herbicide with or without safener in tank mix, greenhouse pot test, crop damage scored visually. As to conditions: 20 days after post-emergence application at BBCH11; herbicide 300 g/ha; safener (mefenpyr-diethyl) 200 g/ha in tank mix where combined; vs untreated controls; mean of at least 3 replicates.
From the text: 1. Method as Used in the Prior Art
as §1
Post-emergence application was done when the plants had reached growth stage BBCH11 (BBCH is the international coding system for the growth stage of crops and weeds).
as §5, §6, §7, §8, §9

With `CC1(C)CON(Cc2ccc(Cl)cc2Cl)C1=O` [Herbicide post-em., 2-(2,4-dichlorophenyl)methyl-4,4-dimethyl-3-isoxazolidinone], the “% chlorosis” value in series [1] came to 40%; in series [2] it was 17%; in series [3] it was 40%; in series [4], 40%. For the same compound, the “% growth depression” value in series [1] is listed as 40%; in series [2], 27%; in series [3] it was 40%; in series [4] it was 40%.
